Data taken from patent US20050101595A1, “N-containing cycloalkyl-substituted amino-thiazole derivatives and pharmaceutical compositions for inhibiting cell proliferation and methods for their use” (PFIZER INC., priority 2003, published 2005).
Like-named read-outs stand apart in the source and are kept apart here.

Legend:
[1] = biological target: CDK2/Cyclin A (Homo sapiens, UniProt P24941); test: Inhibition of CDK2/Cyclin A Retinoblastoma Kinase Activity; format: biochemical; settings: apparent Ki, CDK2/proteolyzed cyclin A, Rb fragment substrate, 25 μM ATP
In short: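 CDK2 (10 or 19 nM), insect-cell expressed, gel-filtration purified with truncated cyclin A; Rb fragment substrate; 25 μM ATP; 10 mM HEPES pH 7.4, 10 mM MgCl2; 30° C, 60 or 75 min; EDTA stop; phosphocellulose/nitrocellulose capture, phosphorimager. % inhibition vs DMSO control, no-enzyme background subtracted.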

[2] = biological target: human CDK4 and genetically truncated (1-264) cyclin D3 (Homo sapiens, UniProt P11802); test: Inhibition of CDK4/Cyclin D Retinoblastoma Kinase Activity; format: biochemical; settings: apparent Ki, CDK4/truncated cyclin D3, Rb fragment substrate, 25 μM ATP
Protocol: Cyclin-dependent kinase activity was measured by quantifying the enzyme-catalyzed, time-dependent incorporation of radioactive phosphate from [^32P]ATP or [^33P]ATP into a protein substrate. Unless noted otherwise, assays were performed in 96-well plates in a total volume of 50 μL, in the presence of 10 mM HEPES (N-[2-hydroxyethyl]piperazine-N′-[2-ethanesulfonic acid]) (pH 7.4), 10 mM MgCl2, 25 μM adenosine triphosphate (ATP), 1 mg/mL ovalbumin, 5 μg/mL leupeptin, 1 mM dithiothreitol, 10 mM β-glycerophosphate, 0.1 mM sodium vanadate, 1 mM sodium fluoride, 2.5 mM ethylene glycol-bis(β-aminoethyl ether)-N,N,N′N′-tetraacetic acid (EGTA), 2% (v/v) dimethylsulfoxide, and 0.03-0.4 μCi [^32/33P]ATP per reaction. Reactions were initiated with enzyme, incubated at 30° C., and terminated after 20 minutes by the addition of ethylenediaminetetraacetic acid (EDTA) to 250 mM. The phosphorylated substrate was then captured on a nitrocellulose or phosphocellulose membrane using a 96-well filtration manifold, and unincorporated radioactivity was removed by repeated washing with 0.85% phosphoric acid. Radioactivity was quantified by exposing the dried membranes to a phosphorimager.
Inhibition was measured relative to control wells that contained all reaction components including 2% (v/v) DMSO but no compound, after subtraction of background radioactivity measured in the absence of enzyme. Apparent Ki values of discrete compounds were measured by assaying enzyme activity in the presence of different inhibitor compound concentrations and subtracting the background radioactivity measured in the absence of enzyme. The kinetic parameters (kcat, Km for ATP) were measured for each enzyme under the usual assay conditions by determining the dependence of initial rates on ATP concentration. Inhibition data were fit to an equation for competitive inhibition using Kaleidagraph (Synergy Software), or were fit to an equation for competitive tight-binding inhibition using the software KineTic (BioKin, Ltd.).
Inhibition of CDK4/Cyclin D Retinoblastoma Kinase Activity:
A complex of human CDK4 and genetically truncated (1-264) cyclin D3 was purified using traditional biochemical chromatographic techniques from insect cells that had been co-infected with the corresponding baculovirus expression vectors (see e.g., Meijer and Kim, “Chemical Inhibitors of Cyclin-Dependent Kinases,” Methods in Enzymol,. vol. 283 (1997), pp. 113-128.). The enzyme complex (5 nM) was assayed with 0.3-0.5 μg of purified recombinant retinoblastoma protein fragment (Rb) as a substrate. The engineered Rb fragment (residues 386-928 of the native retinoblastoma protein; 62.3 kDa) contains the majority of the phosphorylation sites found in the native 106-kDa protein, as well as a tag of six histidine residues for ease of purification. Phosphorylated Rb substrate was captured by microfiltration on a nitrocellulose membrane and quantified using a phosphorimager as described above. For measurement of tight-binding inhibitors, the assay duration was extended to 60 minutes, during which the time-dependence of product formation was linear and initial rate conditions were met.

[3] = system: HCT-116 cell line; test: Inhibition of cell growth, tetrazolium salt (MTT) assay; format: cell-based; settings: Homo sapiens, HCT-116, 120 h, MTT, three to five days
In short: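 MTT colorimetric viability: three-to-five-day compound exposure in 0.5% (v/v) DMSO at 37° C, MTT 0.2 mg/mL for the last 4 h, A540 compared with vehicle-treated cells.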

[4] = first HCT-116 column (c4), read-out: HCT-116 IC50
[5] = second HCT-116 column (c5), read-out: HCT-116 IC50

human CDK4 and genetically truncated (1-264) cyclin D3, sequence (P11802 whole entry, the tested form may be a part): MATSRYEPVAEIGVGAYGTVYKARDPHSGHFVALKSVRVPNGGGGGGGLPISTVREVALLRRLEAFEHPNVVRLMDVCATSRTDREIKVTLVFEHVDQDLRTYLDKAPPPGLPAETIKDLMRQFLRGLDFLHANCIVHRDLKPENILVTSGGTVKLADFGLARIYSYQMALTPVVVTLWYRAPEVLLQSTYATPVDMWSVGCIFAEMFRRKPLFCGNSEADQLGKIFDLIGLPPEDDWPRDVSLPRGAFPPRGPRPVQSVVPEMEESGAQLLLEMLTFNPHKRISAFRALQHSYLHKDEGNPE
human CDK4 and genetically truncated (1-264) cyclin D3, sequence (P30281 1-264 partner): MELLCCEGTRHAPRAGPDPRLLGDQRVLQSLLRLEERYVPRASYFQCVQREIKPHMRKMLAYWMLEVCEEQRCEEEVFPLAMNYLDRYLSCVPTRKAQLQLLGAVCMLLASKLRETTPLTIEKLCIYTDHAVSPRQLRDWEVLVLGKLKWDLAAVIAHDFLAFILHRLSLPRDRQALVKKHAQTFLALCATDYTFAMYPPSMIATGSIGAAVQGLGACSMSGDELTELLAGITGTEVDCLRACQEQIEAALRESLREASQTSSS

SMILES	Ki [1] [nM]	Ki [2] [nM]	IC50 [3, 4] [nM]	IC50 [3, 5] [nM]	IC50 ([3]; read-out: HCT-116 IC50, first HCT-116 column (c4)) [nM]	IC50 ([3]; read-out: HCT-116 IC50, second HCT-116 column (c5)) [nM]
CC(C)S(=O)(=O)c1csc(C(=O)N2CCC(Nc3nc(N)c(C(=O)c4c(F)cccc4F)s3)CC2)c1Cl [Example C5, (4-Amino-2-{1-[3-chloro-4-(propane-2-sulfonyl)-thiophene-2-carbonyl]-piperidin-4-ylamino}-thiazol-5-yl)-(2,6-difluoro-phenyl)-methanone]	81	8	1900	4000	–	–
Nc1nc(NC2CCN(C(=S)Oc3ccccc3)CC2)sc1C(=O)c1c(F)cccc1F [Example C6, 4-[4-Amino-5-(2,6-difluoro-benzoyl)-thiazol-2-ylamino]-piperidine-1-carbothioic Acid O-Phenyl Ester]	6.1	7.9	220	900	–	–
COc1ccc(/C=C/C(=O)N2CCC(Nc3nc(N)c(C(=O)c4c(F)cccc4F)s3)CC2)c(Cl)c1OC [Example C7, 1-{4-[4-Amino-5-(2,6-difluoro-benzoyl)-thiazol-2-ylamino]-piperidin-1-yl}-3-(2-chloro-3,4-dimethoxy-phenyl)-propenone]	32	40	600	1600	–	–
Nc1nc(NC2CCN(C(=S)Oc3ccc(F)cc3)CC2)sc1C(=O)c1c(F)cccc1F [Example C11, 4-[4-Amino-5-(2,6-difluoro-benzoyl)-thiazol-2-ylamino}-piperidine-1-carbothioic acid —O-(4-Fluoro-phenyl) ester]	6.5	10	400	2700	–	–
Nc1nc(NC2CCN(C(=O)c3cccc([N+](=O)[O-])c3)CC2)sc1C(=O)c1c(F)cccc1F [Example C12, 1-(4-Amino-2-{1-[1-(3-nitro-phenyl)-methanoyl]-piperidin-4-ylamino}-thiazol-5-yl)-1-(2,6-difluoro-phenyl)-methanone]	59	12	220	510	–	–
Nc1nc(NC2CCN(C(=O)Oc3ccc([N+](=O)[O-])cc3)CC2)sc1C(=O)c1c(F)cccc1F [Example C16, 4-[4-Amino-5-(2,6-difluoro-benzoyl)-thiazol-2-ylamino]-piperidine-1-carboxylic acid 4-nitro-phenyl ester]	18	7.5	–	–	130	400
CN1CCC(C(=O)N2CCC(Nc3nc(N)c(C(=O)c4c(F)cccc4F)s3)CC2)CC1 [Example D1, 1-(4-Amino-2-{1-[1-(1-methyl-piperidin-4-yl)-methanoyl]-piperidin-4-ylamino}-thiazol-5-yl)-1-(2,6-difluoro-phenyl)-methanone]	460	130	> 5000	–	–	–
CN(C)CC(=O)N1CCC(Nc2nc(N)c(C(=O)c3c(F)cccc3F)s2)CC1 [Example D2, (4-[4-Amino-5-(2,6-difluoro-benzoyl)-thiazol-2-ylamino}-piperidin-1-yl)-2-dimethylamino-ethanone]	1300	120	1900	5000	–	–
Nc1nc(NC2CCN(C(=O)CCN3CCCCC3)CC2)sc1C(=O)c1c(F)cccc1F [Example D3, 1-(4-[4-Amino-5-(2,6-difluoro-benzoyl)-thiazol-2-ylamino}-piperidin-1-yl)-3-piperidin-1-yl-propan-1-one]	400	71	> 5000	–	–	–
CN(C)[C@@H](Cc1ccccc1)C(=O)N1CCC(Nc2nc(N)c(C(=O)c3c(F)cccc3F)s2)CC1 [Example D4, (4-[4-Amino-5-(2,6-difluoro-benzoyl)-thiazol-2-ylamino}-piperidin-1-yl)-2S-dimethylamino-phenyl-propan-1-one]	2600	460	> 5000	–	–	–
Nc1nc(NC2CCN(C(=O)[C@@H]3CCC(=O)O3)CC2)sc1C(=O)c1c(F)cccc1F [Example D5, 5S-[1{-4-[4-Amino-5-(2,6-difluoro-benzoyl)-thiazol-2-ylamethano]-piperidin-1-yl}-methanoyl]-tetrahydro-furan-2-one]	6.4	6.8	> 5000	> 5000	–	–
Nc1nc(NC2CCN(C(=O)/C=C/c3ccncc3)CC2)sc1C(=O)c1c(F)cccc1F [Example D6, 1-{[4-Amino-5-(2,6-difluoro-benzoyl)-thiazol-2-ylamino]-piperidin-1-yl)3-pyridin-4-yl-prop-2(E)-enone]	160	67	1900	3900	–	–

Second part, led by results:

Ki [1] [nM]	Ki [2] [nM]	IC50 [3, 4] [nM]	IC50 [3, 5] [nM]	SMILES	IC50 ([3]; read-out: HCT-116 IC50, first HCT-116 column (c4)) [nM]	IC50 ([3]; read-out: HCT-116 IC50, second HCT-116 column (c5)) [nM]
45	41	460	1300	Nc1nc(NC2CCN(C(=O)c3sccc3Cl)CC2)sc1C(=O)c1c(F)cccc1F [Example C8, {4-Amino-2-[1-(3-chloro-thiophene-2-carbonyl)-piperidin-4-ylamino]-thiazol-5-yl}-(2,6-difluoro-phenyl)-methanone]	–	–
67	20	590	1300	Nc1nc(NC2CCN(C(=O)c3ccc(Cl)nc3)CC2)sc1C(=O)c1c(F)cccc1F [Example C9, 1-(4-Amino-2-{1-[-(6-chloro-pyridin-3-yl)-methanoyl]-piperidin-4-ylamino}-thiazol-5-yl)-1-(2,6-difluoro-phenyl)-methanone]	–	–
39	22	750	2100	Nc1nc(NC2CCN(C(=O)c3ccno3)CC2)sc1C(=O)c1c(F)cccc1F [Example C10, 1-{4-Amino-2-[1-(1-isoxazol-5-yl-methanoyl)-piperidin-4-ylamino]-thiazol-5-yl}1-(2,6-difluoro-phenyl)-methanone]	–	–
53	18	2800	5000	Nc1nc(NC2CCN(C(=O)c3ccncc3)CC2)sc1C(=O)c1c(F)cccc1F [Example C13]	–	–
95	66	> 5000	> 5000	Nc1nc(NC2CCN(C(=O)c3c[nH]cn3)CC2)sc1C(=O)c1c(F)cccc1F [Example C14, 1-{4-Amino-2-[1-(1-1H-imidazol-4-yl-methanoyl)-piperidin-4-ylamino]-thiazol-5-yl}-1-(2,6-difluoro-phenyl)-methanone]	–	–
150	51	> 5000	> 5000	Cn1cncc1C(=O)N1CCC(Nc2nc(N)c(C(=O)c3c(F)cccc3F)s2)CC1 [Example C15, 1-(4-Amino-2-{1-[1-(3-methyl-3H-imidazol-4-yl)-methanoyl]-piperidin-4-ylamino}-thiazol-5-y)-1-(2,6-difluoro-phenyl)-methanone]	–	–
17	21	2100	4400	Nc1nc(NC2CCN(C(=O)n3ccnc3)CC2)sc1C(=O)c1c(F)cccc1F [Example C17, {4-[4-Amino-5-(2,6-difluoro-benzoyl)-thiazol-2-ylamino]-piperidin-1-yl}-imidazol-1-yl-methanone]	–	–
